Experimental data as given in patent publication US20230373989A1, “N-PHENYLAMINOCARBONYL PYRIDINO-, PYRIMIDINO AND BENZO-TROPANES AS MODULATORS OF GPR65” (PATHIOS THERAPEUTICS LIMITED, priority 2020, published 2023).
Where two headings read alike, the source gives them in different places.

Target: T1, human recombinant GPR65 (Homo sapiens, UniProt Q8IYL9)
T1 construct: host or cells: 1321N1 human astrocytoma cells (1321N1-hrGPR65)
Assay: Human GPR65 cAMP HTRF antagonist assay
Assay type: cell-based
Procedure, shortened: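 1321N1 astrocytoma cells stably expressing GPR65 were preincubated with compound for 30 min at room temperature in KRH pH 7.6 with 1 mM IBMX and 200 μM EDTA. They were then stimulated at assay pH 7.2 for 30 min, with controls at pH 7.9. cAMP was read by HTRF (665/620 nm), normalised to controls and fitted by 4-parameter logistic to give IC50.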

[1] = 1321N1-hrGPR65 cells, assay pH 7.2, cAMP HTRF, read-out: hGPR65 IC50 (activity class)

T1 sequence (Q8IYL9 whole entry): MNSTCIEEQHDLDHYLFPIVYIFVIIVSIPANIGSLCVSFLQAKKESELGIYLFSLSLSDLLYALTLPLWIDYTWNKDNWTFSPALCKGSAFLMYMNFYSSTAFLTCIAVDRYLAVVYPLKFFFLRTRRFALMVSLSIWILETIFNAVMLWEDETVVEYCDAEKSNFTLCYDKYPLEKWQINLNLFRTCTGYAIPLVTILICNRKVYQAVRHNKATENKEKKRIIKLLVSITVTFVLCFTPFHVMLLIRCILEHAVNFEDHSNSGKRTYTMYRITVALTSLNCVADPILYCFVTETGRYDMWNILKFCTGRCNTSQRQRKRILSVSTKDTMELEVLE

Compound	IC50	IC50 [1]
O=C(Nc1ccc(F)c(Br)c1)N1C2CCC1c1ccnc(F)c1C2 (racemic) [Compound 172, (±)-N-(3-Bromo-4-fluorophenyl)-1-fluoro-6,7,8,9-tetrahydro-5H-5,8-epiminocyclohepta[c]pyridine-10-carboxamide]	< 500 nM	–
O=C(Nc1ccc(F)c(Cl)c1F)N1C2CCC1c1ccnc(F)c1C2 (racemic) [Compound 154, (±)-N-(3-Chloro-2,4-difluorophenyl)-1-fluoro-6,7,8,9-tetrahydro-5H-5,8-epiminocyclohepta[c]pyridine-10-carboxamide]	–	500 to 5000 nM
O=C(Nc1ccc(-n2cccn2)cc1)N1[C@H]2CC[C@@H]1c1ccnc(F)c1C2 [Compound 183, (5R,8S)-N-(4-(1H-Pyrazol-1-yl)phenyl)-1-fluoro-6,7,8,9-tetrahydro-5H-5,8-epiminocyclohepta[c]pyridine-10-carboxamide]	–	500 to 5000 nM
O=C(Nc1ccc(Cl)cc1)N1C2CCC1c1cncnc1C2 (racemic) [Compound 49, (±)-N-(4-Chlorophenyl)-6,7,8,9-tetrahydro-5H-5,8-epiminocyclohepta[d]pyrimidine-10-carboxamide]	–	> 5000 nM
Nc1nccc2c1CC1CCC2N1C(=O)Nc1ccc(Cl)c(Cl)c1 (racemic) [Compound 63, (±)-1-amino-N-(3,4-dichlorophenyl)-6,7,8,9-tetrahydro-5H-5,8-epiminocyclohepta[c]pyridine-10-carboxamide]	–	> 5000 nM
O=C(Nc1cccc(F)c1)N1C2CCC1c1ccnc(F)c1C2 (racemic) [Compound 155, (±)-1-Fluoro-N-(3-fluorophenyl)-6,7,8,9-tetrahydro-5H-5,8-epiminocyclohepta[c]pyridine-10-carboxamide]	–	500 to 5000 nM
O=C(Nc1ccc(C(F)(F)F)c(Cl)c1)N1C2CCC1c1ccc(F)cc1C2 (racemic) [Compound 75, (±)-N-(3-Chloro-4-(trifluoromethyl)phenyl)-2-fluoro-6,7,8,9-tetrahydro-5H-5,8-epiminobenzo[7]annulene-10-carboxamide]	< 500 nM	–
O=C(Nc1ccc(-c2cscn2)cc1)N1[C@H]2CC[C@@H]1c1ccnc(F)c1C2 [Compound 186, (5R,8S)-1-Fluoro-N-(4-(thiazol-4-yl)phenyl)-6,7,8,9-tetrahydro-5H-5,8-epiminocyclohepta[c]pyridine-10-carboxamide]	–	500 to 5000 nM
O=C(Nc1ccc(Cl)c(Cl)c1)N1C2CCC1c1ncncc1C2 (racemic) [Compound 17, (±)-N-(3,4-Dichlorophenyl)-6,7,8,9-tetrahydro-5H-6,9-epiminocyclohepta[d]pyrimidine-10-carboxamide]	< 500 nM	–
O=C(Nc1cc(Cl)c(C(F)(F)F)cc1F)N1C2CCC1c1cnc(F)c(F)c1C2 (racemic) [Compound 136, (±)-N-(5-Chloro-2-fluoro-4-(trifluoromethyl)phenyl)-3,4-difluoro-6,7,8,9-tetrahydro-5H-6,9-epiminocyclohepta[c]pyridine-10-carboxamide]	–	500 to 5000 nM
COc1cc2c(cn1)[C@H]1CC[C@@H](C2)N1C(=O)Nc1ccc(Cl)c(Cl)c1 [Compound 86, (6S,9R)-N-(3,4-Dichlorophenyl)-3-methoxy-6,7,8,9-tetrahydro-5H-6,9-epiminocyclohepta[c]pyridine-10-carboxamide]	–	> 5000 nM
O=C(Nc1ccc(OC(F)F)cc1)N1C2CCC1c1ccnc(F)c1C2 (racemic) [Compound 169, (±)-N-(4-(Difluoromethoxy)phenyl)-1-fluoro-6,7,8,9-tetrahydro-5H-5,8-epiminocyclohepta[c]pyridine-10-carboxamide]	–	500 to 5000 nM
O=C(Nc1ccc(Cl)c(Cl)c1)N1[C@H]2CC[C@@H]1c1cc[n+]([O-])cc1C2 [Compound 92]	< 500 nM	–
O=C(Nc1ccc(C(F)(F)F)c(Br)c1)N1C2CCC1c1cncnc1C2 (racemic) [Compound 15, (±)-N-(3-Bromo-4-(trifluoromethyl)phenyl)-6,7,8,9-tetrahydro-5H-5,8-epiminocyclohepta[d]pyrimidine-10-carboxamide]	< 500 nM	–
O=C(Nc1ccc(OC(F)(F)F)c(Cl)c1)N1[C@H]2CC[C@@H]1c1ccnc(F)c1C2 [Compound 124, (5R,8S)-N-(3-Chloro-4-(trifluoromethoxy)phenyl)-1-fluoro-6,7,8,9-tetrahydro-5H-5,8-epiminocyclohepta[c]pyridine-10-carboxamide]	< 500 nM	–
O=C(Nc1ccc(Cl)c(Cl)c1)N1[C@H]2CC[C@@H]1c1cnccc1C2 [Compound 111, (6S,9R)-N-(3,4-Dichlorophenyl)-6,7,8,9-tetrahydro-5H-6,9-epiminocycloheptan[c]pyridine-10-carboxamide]	–	500 to 5000 nM
N#Cc1ccc(NC(=O)N2C3CCC2c2ccnc(F)c2C3)cc1C(F)(F)F (racemic) [Compound 163, (±)-N-(4-Cyano-3-(trifluoromethyl)phenyl)-1-fluoro-6,7,8,9-tetrahydro-5H-5,8-epiminocyclohepta[c]pyridine-10-carboxamide]	< 500 nM	–
